# Measurements as given in patent US20250304571A1, “BIOLOGICALLY ACTIVE COMPOUNDS AND METHODS THEREOF” (Suzhou Keen Therapeutics Co., Ltd., priority 2022, published 2025).
# Tested on: 786-O (renal cell carcinoma) cells
# Experiment: Cell viability (CellTiter Glo) assay, inhibition of 786-O cell proliferation
# Assay type: cell-based
# Conditions: Homo sapiens, 786-0, 72 h, read-out: IC50, inhibition of 786-O cell proliferation
row,SMILES,IC50 [µM]
1,CN(C(=N)OCc1nc(N)nc(Nc2ccc(Oc3ccccc3)cc2)n1)c1ccccc1 [Compound F29],< 0.1
2,N=C(OCc1nc(N)nc(Nc2ccc(Oc3ccccc3)cc2)n1)N(C1CCCCC1)C1CC1 [Compound F14],< 0.1
3,CN(C)C(=N)OCc1nc(NC2CCCCC2)c2cc[nH]c2n1 [Compound D9],0.5 to 5
4,CC(C)N(CC(F)(F)F)C(=N)OCc1nc(N)nc(Nc2ccc(Oc3ccccc3)cc2)n1 [Compound F8],< 0.1
5,CN(C)C(=N)OCc1ncc2c(n1)c(-c1ccc(Oc3ccccc3)cc1)nn2C [Compound D11],0.5 to 5

# Same assay, conditions: Homo sapiens, 786-0; 786-O cells, 72 hours, CellTiter Glo; read-out: IC50, inhibition of 786-O cell proliferation
row,SMILES,IC50 [µM]
1,CNc1nc(COC(=N)N2CCC[C@@H]2C(F)(F)F)nc2c1C1(CCCC1)C(=O)N2c1cnc(C2=CCOCC2)nc1 [Compound E95],< 0.1
2,CC(C)Oc1ccc(N2C(=O)C3(CC3)c3cnc(COC(=N)N(CC(F)(F)F)C(C)C)nc32)cn1 [Compound E133],0.5 to 5
3,CC1(C)C(=O)N(c2ccc(N3CCC4(CC3)CC4)nc2)c2nc(COC(=N)N3CCC[C@@H]3C(F)(F)F)nc(N)c21 [Compound E70],< 0.1
4,CC1(C)C(=O)N(c2ccc(N3CCOCC3)cc2)c2nc(COC(=N)N3CCC[C@@H]3C(F)(F)F)nc(NCC(F)F)c21 [Compound E197],< 0.1
5,CCN(CC(F)(F)F)C(=N)OCc1cc(Nc2ccc(Oc3ccccc3)cc2)cnn1 [Compound F48],0.5 to 5
6,CNc1nc(COC(=N)N2CC(F)(F)C[C@@H]2C)nc2c1C(C)(C)C(=O)N2c1ccc(N2CCOCC2)cc1 [Compound E41],0.1 to 0.5
7,CC(C)N(CC(F)(F)F)C(=N)OCc1ncc2c(n1)N(c1ccc(O)cc1)C(=O)C21CC1 [Compound E165],> 5
8,CNc1nc(COC(=N)N2CCC[C@@H]2C(F)(F)F)nc2c1C(C)(C)C(=O)N2c1cnc(N2C[C@@H](C)O[C@@H](C)C2)nc1 [Compound E217],< 0.1
9,CCCNc1nc(COC(=N)N2CCC[C@@H]2C(F)(F)F)nc2c1C(C)(C)C(=O)N2c1ccc(N2CCOCC2)cc1 [Compound E201],< 0.1
10,"C[C@@H]1CN(c2ncc(N3C(=O)C4(CCCC4)c4c(NC5CCC5)nc(COC(=N)N5CCC[C@@H]5C(F)(F)F)nc43)cn2)C[C@H](C)O1 [Compound E92, [4′-(cyclobutylamino)-7′-{2-[(2R,6S)-2,6-dimethylmorpholin-4-yl]pyrimidin-5-yl}-6′-oxo-6′,7′-dihydrospiro[cyclopentane-1,5′-pyrrolo[2,3-d]pyrimidin]-2′-yl]methyl (2R)-2-(trifluoromethyl)pyrrolidine-1-carboximidate]",0.1 to 0.5
11,COc1cc(N2CCOCC2)ccc1N1CC(C)(C)c2c(N)nc(COC(=N)N3CCC[C@@H]3C(F)(F)F)nc21 [Compound E77],< 0.1
12,CNc1nc(COC(=N)N2CCCC2C(F)(F)F)nc2c1C(C)(C)C(=O)N2c1ccc(N2CCC(F)(F)CC2)nc1 (stereo not drawn) [Compound E22],< 0.1
13,COc1cc(N2C[C@@H](C)O[C@@H](C)C2)ncc1N1C(=O)C(C)(C)c2c(N)nc(COC(=N)N3CCC[C@@H]3C(F)(F)F)nc21 [Compound E47],0.1 to 0.5
14,CNc1nc(COC(=N)N2CCC[C@@H]2C(F)(F)F)nc2c1C1(CCCC1)C(=O)N2c1cnc(N2CCOCC2)nc1 [Compound E80],< 0.1
15,CC(C)Nc1nc(COC(=N)N2CCC[C@@H]2C(F)(F)F)nc2c1C1(CCCC1)C(=O)N2c1cnc(N2CCOCC2)nc1 [Compound E79],0.1 to 0.5
16,"N=C(OCc1nc(N)nc(Nc2ccc(N3CCOCC3)cc2)n1)N1CCC[C@@H]1C(F)(F)F [Compound F55, (4-amino-6-((4-morpholinophenyl)amino)-1,3,5-triazin-2-yl) methyl(R)-2-(trifluoromethyl) pyrrolidine-1-carbimidate]",0.1 to 0.5
17,C[C@@H]1CN(c2ncc(N3C(=O)C4(CCCC4)c4c(N)nc(COC(=N)N5CCOC[C@H]5C(F)(F)F)nc43)cn2)C[C@H](C)O1 [Compound E104A],0.1 to 0.5
18,CC(C)N(CC(F)(F)F)C(=N)OCc1ncc2c(n1)N(c1cccc(Oc3ccccc3)c1)CC21CC1 [Compound E142],0.5 to 5
19,CCN(CC(F)(F)F)C(=N)OCc1nc(N)c2c(n1)N(c1ccc(N3C[C@@H](C)O[C@@H](C)C3)nc1)C(=O)C2(C)C [Compound E190],0.1 to 0.5
20,CC(C)N(CC(F)(F)F)C(=N)OCc1ncc(C(C)(C)O)c(Nc2ccc(Oc3ccccc3)cc2)n1 [Compound E138],0.1 to 0.5
21,CN(C)c1nc(COC(=N)N2CCC[C@@H]2C(F)(F)F)nc2c1C(C)(C)C(=O)N2c1ccc(N2CCOCC2)cc1 [Compound E54],< 0.1
22,C[C@@H]1CN(c2ccc(N3C(=O)C4(CCCC4)c4c(N)nc(COC(=N)N5CCC[C@@H]5C(F)(F)F)nc43)cc2F)C[C@H](C)O1 [Compound E214],< 0.1
23,CNc1nc(COC(=N)N2CC(F)(F)C[C@@H]2C)nc2c1C(C)(C)C(=O)N2c1ccc(N2C[C@@H](C)O[C@@H](C)C2)nc1 [Compound E116],0.1 to 0.5
24,CC1(C)C(=O)N(c2cc(F)c3c(c2)CCO3)c2nc(COC(=N)N3CCC[C@@H]3C(F)(F)F)nc(N)c21 [Compound E65],< 0.1
25,CC(C)N(CC(F)(F)F)C(=N)OCc1ncc2c(n1)N(c1ccc(N3CCOCC3)nc1)CC21CC1 [Compound E141],0.1 to 0.5
26,CC(C)N(CC(F)(F)F)C(=N)OCc1ncc2c(n1)N(c1ccc(Oc3ccccc3)cc1)CC21CC1 [Compound E137],< 0.1

row,SMILES,IC50 [µM]
1,CC(C)N(CC(F)(F)F)C(=N)OCc1ncc2c(n1)N(c1ccc(OC3CCCCC3)cn1)CC2(C)C [Compound E135],0.5 to 5
2,CCN(CC)C(=N)OCc1nc(N)nc(Nc2ccc(Oc3ccccc3)cc2)n1 [Compound F17],0.1 to 0.5
3,"CNc1nc(COC(=N)N2CCC[C@@H]2C(F)(F)F)nc2c1C1(CCCC1)C(=O)N2c1cnc(N2CC3CC2CO3)nc1 (stereo partly drawn) [Compound E96, (7′-(2-(2-oxa-5-azabicyclo[2.2.1]heptan-5-yl)pyrimidin-5-yl)-4′-(methylamino)-6′-oxo-6′,7′-dihydrospiro[cyclopentane-1,5′-pyrrolo[2,3-d]pyrimidin]-2′-yl)methyl (2R)-2-(trifluoromethyl)pyrrolidine-1-carbimidate]",0.1 to 0.5
4,N=C(OCc1nc(NC2CC2)c2c(n1)N(c1ccc(N3CCOCC3)cc1)C(=O)C21CCCCC1)N1CCC[C@@H]1C(F)(F)F [Compound E71],< 0.1
5,CC1(C)CC(c2ncc(N3C(=O)C4(CCCC4)c4c(N)nc(COC(=N)N5CCOCC5C(F)(F)F)nc43)cn2)CC(C)(C)O1 (stereo not drawn) [Compound E101],0.5 to 5
6,N=C(OCc1nc(N)c2c(n1)N(c1cnc(C3CC3)nc1)C(=O)C21CCCC1)N1CCC[C@@H]1C(F)(F)F [Compound E63],< 0.1
7,CNc1nc(COC(=N)N2CCC[C@@H]2C(F)(F)F)nc2c1C(C)(C)CN2c1ccc(N2CCOCC2)cc1OC [Compound E106],< 0.1
8,CCCCC1Cc2c([nH]c3ccccc23)C(c2ccc(NC34CC5CC(CC(C5)C3)C4)cc2)N1C(=O)CO/C(=N\C(C)C)NC(C)C (stereo not drawn) [Compound B1],> 5
9,CNc1nc(COC(=N)N(CC(F)(F)F)C(C)C)nc2c1C1(CC1)C(=O)N2c1ccc(N2CCCCC2)nc1 [Compound E166],< 0.1
10,C[C@@H]1CN(c2ncc(N3C(=O)C(C)(C)c4c(N)nc(COC(=N)N5CCC[C@@H]5C(F)(F)F)nc43)cn2)C[C@H](C)O1 [Compound E105],< 0.1
11,"CN1CCCN=C1OCc1ncc2c(n1)N(c1ccc(Oc3ccccc3)cc1)CC2(C)C [Compound E151, 5,5-dimethyl-2-(((1-methyl-1,4,5,6-tetrahydropyrimidin-2-yl)oxy)methyl)-7-(4-phenoxyphenyl)-6,7-dihydro-5H-pyrrolo[2,3-d]pyrimidine]",> 5
12,N=C(OCc1nc(NC2CC2)c2c(n1)N(c1ccc(N3CCOCC3)c(F)c1)C(=O)C21CCCCC1)N1CCC[C@@H]1C(F)(F)F [Compound E73],< 0.1
13,N=C(OCc1nc(N)nc(Nc2ccc(Oc3ccccc3)cc2)n1)N1CCCC12CCOCC2 [Compound E122],0.5 to 5
14,"CC(C)N(CC(F)(F)F)C(=N)OCc1ncc(C2CCCCO2)c(Nc2ccc(N3CCOCC3)nc2)n1 (stereo not drawn) [Compound E156, (4-((6-morpholinopyridin-3-yl)amino)-5-(tetrahydro-2H-pyran-2-yl)pyrimidin-2-yl)methyl isopropyl]",0.5 to 5
15,CCCCOc1ccc(N2C(=O)C3(CC3)c3cnc(COC(=N)N(CC(F)(F)F)C(C)C)nc32)cc1 [Compound E161],0.1 to 0.5
16,C[C@@H]1CN(c2ncc(N3C(=O)C(C)(C)c4c(NC5CCC5)nc(COC(=N)N5CCOCC5C(F)(F)F)nc43)cn2)C[C@H](C)O1 (stereo partly drawn) [Compound E219],0.1 to 0.5
17,CNc1nc(COC(=N)N2CCC[C@@H]2C(F)(F)F)nc2c1C(C)(C)C(=O)N2c1ccc(N2CCOCC2)cc1 [Compound E114],< 0.1
18,CNc1nc(COC(=N)N2CCC[C@H]2C(F)(F)F)nc2c1C(C)(C)C(=O)N2c1ccc(N2CCOCC2)cc1 [Compound E108],< 0.1
19,CCNc1nc(COC(=N)N2CCCC2C(F)(F)F)nc2c1C(C)(C)C(=O)N2c1ccc(N2CCOCC2)cc1 (stereo not drawn) [Compound E175],< 0.1
20,CCN(C(=N)OCc1nc(N)nc(Nc2ccc(Oc3ccccc3)cc2)n1)c1ccncc1 [Compound F41],< 0.1
21,CNc1nc(COC(=N)N2CCCCC2C(F)(F)F)nc2c1C(C)(C)C(=O)N2c1ccc(N2CCOCC2)cc1 (stereo not drawn) [Compound E153],< 0.1
22,CC1(C)C(=O)N(c2cnc(N3CCC(F)(F)C3)nc2)c2nc(COC(=N)N3CCOCC3C(F)(F)F)nc(NC3CCC3)c21 (stereo not drawn) [Compound E220],0.1 to 0.5
23,C[C@@H]1CN(c2ccc(N3C(=O)C4(CCCCC4)c4c(N)nc(COC(=N)N5CCC[C@@H]5C(F)(F)F)nc43)cn2)C[C@H](C)O1 [Compound E45],< 0.1
24,CCCCC1Cc2c([nH]c3ccccc23)C(c2ccc(F)cc2)N1C(=O)COC(=N)N1CCN(CC)C(=O)C12CC2 (stereo not drawn) [Compound B2],0.5 to 5
25,N=C(OCc1ncc2c(n1)N(c1cnc(N3CCC(F)(F)CC3)nc1)C(=O)C21CCCC1)N1CCC[C@@H]1C(F)(F)F [Compound E118],< 0.1
26,CNc1nc(COC(=N)N2CCC[C@@H]2C(F)(F)F)nc2c1C(C)(C)CN2c1ccc(N2C[C@@H](C)O[C@@H](C)C2)nc1 [Compound E19],< 0.1
